Measured values taken from US10670605B2, “Cysteine reactive probes and uses thereof” (The Scripps Research Institute, priority 2015, dated 2020).

Tests used:
Assay in all cases: Competitive isoTOP-ABPP in situ (fragment-treated cells)
Format in all cases: cell-based
[1] = molecular target: T1, cysteines in MDA-MB-231 and Ramos cells (Homo sapiens, UniProt Q09161)
T1 sequence (Q09161 1-790): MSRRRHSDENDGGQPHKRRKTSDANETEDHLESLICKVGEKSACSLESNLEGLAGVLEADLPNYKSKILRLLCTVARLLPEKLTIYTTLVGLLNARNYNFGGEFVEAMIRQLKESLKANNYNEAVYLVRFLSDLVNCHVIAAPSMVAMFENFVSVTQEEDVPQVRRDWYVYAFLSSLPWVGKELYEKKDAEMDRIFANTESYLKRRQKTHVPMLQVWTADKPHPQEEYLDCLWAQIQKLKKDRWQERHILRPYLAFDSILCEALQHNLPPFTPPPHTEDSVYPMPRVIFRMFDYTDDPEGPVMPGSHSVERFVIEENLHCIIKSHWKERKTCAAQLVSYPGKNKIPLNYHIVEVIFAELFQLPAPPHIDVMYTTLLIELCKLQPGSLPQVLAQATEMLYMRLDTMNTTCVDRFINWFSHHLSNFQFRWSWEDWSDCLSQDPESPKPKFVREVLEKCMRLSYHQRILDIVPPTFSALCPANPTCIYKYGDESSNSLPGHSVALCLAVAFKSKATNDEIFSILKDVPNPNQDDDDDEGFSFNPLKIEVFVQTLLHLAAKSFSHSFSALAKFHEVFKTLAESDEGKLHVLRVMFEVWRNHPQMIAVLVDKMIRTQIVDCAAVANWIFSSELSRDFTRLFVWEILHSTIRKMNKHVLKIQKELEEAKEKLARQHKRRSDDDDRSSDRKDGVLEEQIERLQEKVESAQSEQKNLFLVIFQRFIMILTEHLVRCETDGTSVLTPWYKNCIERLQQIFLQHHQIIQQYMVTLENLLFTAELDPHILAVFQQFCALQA

[2] = molecular target: cysteines in MDA-MB-231 and Ramos cells (Homo sapiens, UniProt Q14997)
[3] = molecular target: T2, cysteines in MDA-MB-231 and Ramos cells (Homo sapiens, UniProt P46734)
T2 sequence (P46734 1-347): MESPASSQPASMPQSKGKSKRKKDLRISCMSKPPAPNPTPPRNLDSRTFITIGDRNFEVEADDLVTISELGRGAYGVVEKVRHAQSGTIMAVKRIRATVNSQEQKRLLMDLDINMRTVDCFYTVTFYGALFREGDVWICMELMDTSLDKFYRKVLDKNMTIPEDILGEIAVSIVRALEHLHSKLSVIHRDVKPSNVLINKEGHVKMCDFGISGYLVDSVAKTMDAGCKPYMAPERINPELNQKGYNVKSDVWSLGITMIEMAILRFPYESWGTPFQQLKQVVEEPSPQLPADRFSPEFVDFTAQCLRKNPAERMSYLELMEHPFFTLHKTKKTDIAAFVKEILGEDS

[4] = molecular target: T3, cysteines in MDA-MB-231 and Ramos cells (Homo sapiens, UniProt P51946)
T3 sequence (P51946 1-323): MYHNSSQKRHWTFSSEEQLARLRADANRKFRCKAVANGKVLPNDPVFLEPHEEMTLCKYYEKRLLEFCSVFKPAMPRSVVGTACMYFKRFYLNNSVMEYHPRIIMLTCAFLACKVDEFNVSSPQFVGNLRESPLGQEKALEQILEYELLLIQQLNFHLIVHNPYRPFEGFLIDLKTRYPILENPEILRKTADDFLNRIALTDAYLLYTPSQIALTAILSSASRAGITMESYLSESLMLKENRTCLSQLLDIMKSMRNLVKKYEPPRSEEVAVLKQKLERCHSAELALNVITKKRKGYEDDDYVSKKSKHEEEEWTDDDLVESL

[5] = molecular target: T4, cysteines in MDA-MB-231 and Ramos cells (Homo sapiens, UniProt Q9NQW6)
T4 sequence (Q9NQW6 1-1124): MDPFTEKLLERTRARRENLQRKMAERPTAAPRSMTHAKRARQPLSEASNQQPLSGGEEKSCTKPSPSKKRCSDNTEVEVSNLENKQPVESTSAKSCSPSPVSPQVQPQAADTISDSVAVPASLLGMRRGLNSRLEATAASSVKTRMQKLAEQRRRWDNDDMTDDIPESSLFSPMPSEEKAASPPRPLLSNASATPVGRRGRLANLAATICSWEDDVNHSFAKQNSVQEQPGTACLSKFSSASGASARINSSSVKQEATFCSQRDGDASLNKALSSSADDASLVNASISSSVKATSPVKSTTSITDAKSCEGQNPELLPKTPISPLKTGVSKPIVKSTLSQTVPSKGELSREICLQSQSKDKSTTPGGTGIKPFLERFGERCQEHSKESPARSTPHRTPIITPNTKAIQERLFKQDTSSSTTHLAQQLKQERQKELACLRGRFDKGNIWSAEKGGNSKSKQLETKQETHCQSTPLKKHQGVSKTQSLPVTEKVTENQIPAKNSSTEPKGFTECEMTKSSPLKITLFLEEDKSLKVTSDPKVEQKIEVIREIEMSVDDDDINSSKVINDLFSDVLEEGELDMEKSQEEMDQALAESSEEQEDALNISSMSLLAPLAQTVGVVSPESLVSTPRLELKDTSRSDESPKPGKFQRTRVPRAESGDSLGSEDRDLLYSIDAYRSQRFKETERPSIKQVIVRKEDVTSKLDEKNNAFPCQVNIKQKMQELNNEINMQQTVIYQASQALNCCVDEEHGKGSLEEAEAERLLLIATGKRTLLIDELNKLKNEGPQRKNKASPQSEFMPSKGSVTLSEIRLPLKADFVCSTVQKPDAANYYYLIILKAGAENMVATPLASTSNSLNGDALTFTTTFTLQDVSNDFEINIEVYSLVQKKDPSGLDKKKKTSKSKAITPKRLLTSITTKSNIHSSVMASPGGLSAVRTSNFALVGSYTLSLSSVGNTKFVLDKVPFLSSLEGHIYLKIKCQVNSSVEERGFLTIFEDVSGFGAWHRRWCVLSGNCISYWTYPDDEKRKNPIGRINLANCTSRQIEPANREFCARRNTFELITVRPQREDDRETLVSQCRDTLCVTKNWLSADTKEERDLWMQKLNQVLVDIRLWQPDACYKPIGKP

Chain of cysteines in MDA-MB-231 and Ramos cells (Homo sapiens, UniProt Q14997) (Q14997 whole entry): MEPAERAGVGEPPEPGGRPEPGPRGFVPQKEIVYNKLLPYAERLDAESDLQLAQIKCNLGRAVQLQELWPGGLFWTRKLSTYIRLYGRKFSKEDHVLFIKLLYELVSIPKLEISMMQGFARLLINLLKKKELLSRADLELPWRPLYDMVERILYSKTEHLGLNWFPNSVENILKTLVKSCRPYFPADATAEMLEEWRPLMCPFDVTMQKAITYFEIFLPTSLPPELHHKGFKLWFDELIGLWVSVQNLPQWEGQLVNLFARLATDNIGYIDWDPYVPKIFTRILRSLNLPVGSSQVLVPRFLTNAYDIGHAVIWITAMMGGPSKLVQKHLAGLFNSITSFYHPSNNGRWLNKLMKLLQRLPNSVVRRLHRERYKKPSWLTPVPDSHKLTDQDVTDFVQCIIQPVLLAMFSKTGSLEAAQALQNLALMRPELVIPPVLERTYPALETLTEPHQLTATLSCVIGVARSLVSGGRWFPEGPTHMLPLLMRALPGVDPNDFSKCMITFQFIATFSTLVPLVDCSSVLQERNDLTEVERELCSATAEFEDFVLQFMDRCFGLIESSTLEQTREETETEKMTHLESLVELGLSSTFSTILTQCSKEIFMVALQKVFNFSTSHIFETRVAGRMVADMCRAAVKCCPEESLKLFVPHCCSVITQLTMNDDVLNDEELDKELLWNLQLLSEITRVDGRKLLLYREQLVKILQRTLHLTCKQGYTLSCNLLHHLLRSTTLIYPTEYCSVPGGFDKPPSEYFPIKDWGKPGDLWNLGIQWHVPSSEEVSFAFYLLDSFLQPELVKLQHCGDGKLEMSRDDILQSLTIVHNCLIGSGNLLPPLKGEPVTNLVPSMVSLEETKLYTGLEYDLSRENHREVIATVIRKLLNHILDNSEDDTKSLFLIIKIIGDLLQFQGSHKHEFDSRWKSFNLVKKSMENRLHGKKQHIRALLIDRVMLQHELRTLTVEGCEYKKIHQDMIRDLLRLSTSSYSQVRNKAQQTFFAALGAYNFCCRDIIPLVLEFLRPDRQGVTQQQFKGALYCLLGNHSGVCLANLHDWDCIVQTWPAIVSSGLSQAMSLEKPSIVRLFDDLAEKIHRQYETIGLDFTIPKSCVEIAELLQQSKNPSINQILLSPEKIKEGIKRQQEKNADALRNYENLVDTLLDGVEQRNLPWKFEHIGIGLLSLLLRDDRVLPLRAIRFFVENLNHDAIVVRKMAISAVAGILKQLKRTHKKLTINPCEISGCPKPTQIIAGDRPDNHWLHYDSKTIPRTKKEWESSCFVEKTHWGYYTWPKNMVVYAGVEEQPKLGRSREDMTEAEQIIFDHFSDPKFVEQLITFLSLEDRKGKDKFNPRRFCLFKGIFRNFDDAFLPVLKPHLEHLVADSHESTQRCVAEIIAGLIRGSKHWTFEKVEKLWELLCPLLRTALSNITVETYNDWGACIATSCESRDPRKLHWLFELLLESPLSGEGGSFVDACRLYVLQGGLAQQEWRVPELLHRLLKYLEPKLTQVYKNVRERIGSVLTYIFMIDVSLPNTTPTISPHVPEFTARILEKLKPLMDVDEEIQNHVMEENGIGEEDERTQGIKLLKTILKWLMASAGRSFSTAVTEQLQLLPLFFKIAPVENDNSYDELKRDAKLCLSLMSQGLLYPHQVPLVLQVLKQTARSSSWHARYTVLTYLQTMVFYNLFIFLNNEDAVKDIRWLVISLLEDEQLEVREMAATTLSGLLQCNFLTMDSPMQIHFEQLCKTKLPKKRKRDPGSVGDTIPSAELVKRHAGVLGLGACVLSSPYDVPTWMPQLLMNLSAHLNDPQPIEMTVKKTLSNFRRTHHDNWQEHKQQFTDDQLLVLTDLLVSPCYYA

| isoTOP-ABPP ratio Q09161_C44 ([1]; 200 μM, insitu, 231) | isoTOP-ABPP ratio Q14997_C1840 ([2]; 200 μM, insitu, 231) | isoTOP-ABPP ratio P46734_C207 ([3]; 200 μM, insitu, 231) | isoTOP-ABPP ratio P51946_C244 ([4]; 200 μM, insitu, 231) | isoTOP-ABPP ratio Q9NQW6_C712 ([5]; 200 μM, insitu, 231) | Structure (SMILES) | also measured |
| --- | --- | --- | --- | --- | --- | --- |
|  |  |  |  |  | COc1ccc2c(c1)CCCN2C(=O)CCl [compound 2] | isoTOP-ABPP reactivity Q09161_C44 NCBP1 ([1]; 200 μM, insitu, 231): 2.1; isoTOP-ABPP reactivity Q14997_C1840 PSME4 ([2]; 200 μM, insitu, 231): 2.8; isoTOP-ABPP reactivity P46734_C207 MAP2K3 ([3]; 200 μM, insitu, 231): 0.8; isoTOP-ABPP reactivity P51946_C244 CCNH ([4]; 200 μM, insitu, 231): 1.9 |
| 0.8 | 20.0 | 0.8 | 1.1 | 1.0 | CC(C)CCOCCNC(=O)CCl [compound 27] |  |
| 4.7 | 20.0 | 0.7 | 1.3 | 16.7 | O=C(CCl)NC(=O)NC12CC3CC(CC(C3)C1)C2 [compound 12] |  |
| 1.3 | 1.0 | 0.9 | 1.4 |  | O=C(CCl)NC12CC3CC(CC(C3)C1)C2 [compound 21] |  |
| 12.4 | 20.0 | 0.8 | 1.7 | 11.2 | O=C(CCl)N1CCN(S(=O)(=O)c2ccccc2F)CC1 [compound 10] |  |
| 0.8 | 0.9 | 0.7 | 1.2 | 0.7 | Cc1ccc(C=C(C#N)C(=O)NCCN2CCOCC2)cc1 [compound 41] |  |
|  |  |  |  |  | Cn1cc(S(=O)(=O)N2CCOCC2)cc1C(=O)NC(=O)CCl [compound 11] | isoTOP-ABPP ratio Q09161_C44 ([1]; 100 μM in situ 231): 1.1; isoTOP-ABPP ratio P46734_C207 ([3]; 100 μM in situ 231): 0.6; isoTOP-ABPP ratio P51946_C244 ([4]; 100 μM in situ 231): 1.3; isoTOP-ABPP ratio Q9NQW6_C712 ([5]; 100 μM in situ 231): 0.9 |
|  | 0.9 |  |  | 0.9 | COc1ccccc1OCCNC(=O)CCl [compound 28] |  |
| 2.5 |  | 1.5 | 2.4 | 5.9 | CC1CCc2ccccc2N1C(=O)CCl (stereo not shown) [compound 45] |  |
| 1.2 | 20.0 | 0.7 | 0.7 |  | O=C(CCl)Nc1cccc2ncccc12 [compound 51] |  |
| 1.2 | 20.0 | 1.5 | 1.0 | 1.5 | C=CC(=O)Nc1cc(F)c(N2CCN(C(=O)OC(C)(C)C)CC2)c(F)c1 [compound 38] |  |
|  |  |  |  |  | COc1cc2c(cc1OC)CN(C(=O)CCl)CC2 [compound 8] | isoTOP-ABPP reactivity Q09161_C44 NCBP1 ([1]; 200 μM, insitu, 231): 2.0; isoTOP-ABPP reactivity Q14997_C1840 PSME4 ([2]; 200 μM, insitu, 231): 20.0; isoTOP-ABPP reactivity P46734_C207 MAP2K3 ([3]; 200 μM, insitu, 231): 0.8; isoTOP-ABPP reactivity Q9NQW6_C712 ANLN ([5]; 200 μM, insitu, 231): 14.1 |
| 0.6 |  |  |  | 0.7 | C=CC(=O)N(Cc1cccnc1)c1cc(C(F)(F)F)cc(C(F)(F)F)c1 [compound 31] | isoTOP-ABPP ratio Q14997_C1840 ([2]; 200 μM, insitu, ramos): 1.2 |
| 1.0 | 0.9 | 0.8 | 1.0 | 1.3 | O=C(CCl)NCCc1c[nH]c2ccccc12 [compound 13] | isoTOP-ABPP ratio Q14997_C1840 ([2]; 200 μM, insitu, ramos): 1.6; isoTOP-ABPP ratio P51946_C244 ([4]; 200 μM, insitu, ramos): 1.2 |
|  |  |  |  |  | O=C(CCl)N1CCC(Cc2ccccc2)CC1 [compound 9] | isoTOP-ABPP reactivity P46734_C207 MAP2K3 ([3]; 200 μM, insitu, 231): 3.3; isoTOP-ABPP reactivity Q9NQW6_C712 ANLN ([5]; 200 μM, insitu, 231): 3.1 |
|  |  |  |  |  | COc1ccc(C2CC(c3cccs3)=NN2C(=O)CCl)cc1 (stereo not shown) [compound 4] | isoTOP-ABPP reactivity Q09161_C44 NCBP1 ([1]; 100 μM in situ 231): 1.8; isoTOP-ABPP reactivity Q14997_C1840 PSME4 ([2]; 100 μM in situ 231): 20.0; isoTOP-ABPP reactivity P46734_C207 MAP2K3 ([3]; 100 μM in situ 231): 0.6; isoTOP-ABPP reactivity P51946_C244 CCNH ([4]; 100 μM in situ 231): 5.3; isoTOP-ABPP reactivity Q9NQW6_C712 ANLN ([5]; 100 μM in situ 231): 4.1 |
|  |  |  |  |  | O=C(CCl)N1CCN(CC(=O)N2CCOCC2)CC1 [compound 29] | isoTOP-ABPP ratio Q09161_C44 ([1]; 200 μM, insitu, ramos): 1.1; isoTOP-ABPP ratio P51946_C244 ([4]; 200 μM, insitu, ramos): 1.1 |
